According to US8486465B1 (priority 2007, dated 2013):

Test system: Human breast cancer MCF-7 cells
Test: Apoptosis of MCF-7 cells by Propidium Iodide technique measured by flow cytometry
Assay type: cell-based
Settings: NOE 0
From the text: Cell Culture. […] Levels of apoptosis (cell death) were then examined using the Propidium Iodide technique as measured by flow cytometry using a FACscan (BD Biosciences, San Jose, Calif.). Forward (FSC) and Side scatter (SSC) were used to gate the cells.
(§1) FIGS. 1A, 1C, 1E, and 1G are dot plots which show the populations of cells grown under the particular culture conditions described below, while FIGS. 1B, 1D, 1F, and 1H respectively are the corresponding frequency histograms showing the total population of apoptotic MCF-7 cancer cells for each culture.
as §1, with “2A, 2C, 2E,” for “1A, 1C, 1E,”, “2G” for “1G”, “[…]” for “1B, 1D, 1F,”, “2B, 2D, 2F and 2H” for “1H”

[1] = GSH 5 mM alone, MCF-7, 24 hours (Table 1, Example 2)
[2] = GSH 10 mM alone, MCF-7, 24 hours (Table 2, Example 3)

N[C@@H](CCC(=O)N[C@@H](CS)C(=O)NCC(=O)O)C(=O)O [GSH, Glutathione]
% cell death [1]: 20%
% cell death relative to control [1]: 11%
% cell survival [1]: 80%
% cell survival relative to Control [1]: 98%
% cell death [2]: 10%
% cell death relative to control [2]: 96%
% cell survival [2]: 90%
% cell survival relative to Control [2]: 95%
